Reference: patent US6663881B2 (priority 1993, dated 2003)

What was measured:
[1] = Biodistribution of 3H-cytochalasin B i.v. (radioactivity); assay type: in vivo, BALB/c mice
Experimental: ^3H-cytochalasin B (2 μg; 30 μCi/μg) was injected i.v. into BALB/c mice having urinary bladders that had been externally ligated. Animals were sacrificed at 15 minutes, 30 minutes, 2 hours or 16 hours post-injection. Organs were removed, blotted, weighed, air dried and assayed for radioactivity. Fifty −73% of the total injected dose was accounted for in the tissues sampled (blood, heart, brain, muscle, bone, lung, liver, spleen, stomach, kidney, intestines, and urinary bladder). Clearance of ^3H-cytochalasin B from the blood was extremely rapid with less than 1% of the injected dose in circulation by 15 minutes.

[2] = Human liver slices distribution and metabolism study (HPLC); assay type: in vitro ADME
Experimental: ^3H-cytochalasin B at a dose of 1.5 or 8 μg/ml was mixed with viable or non-viable human liver slices and media, and the amount of ^3H-cytochalasin B in media or tissue assessed by HPLC (Tables 8 and 9).

[3] = MTT activity in human liver slices after 24 hour exposure; assay type: cell-based
Experimental: The cytotoxity of ^3H-cytochalasin B and its subsequent metabolites was also assessed by evaluating dose dependent changes in mitochondrial function by monitoring 3-[4, 5-dimethylthiazol-2yl]-2, 5-diphenyltetrazolium bromide (MTT) activity following a 24 hour exposure of human liver slices to the test agent (Table 10).

[4] = Stability and metabolism in saline, human plasma and human whole blood (HPLC); assay type: in vitro ADME; details: 20 hours at 37° C.
Experimental: To determine the metabolism of ^3H-cytochalasin B in human blood, ^3H-cytochalasin B (8 μg/ml) was dissolved in saline; 1:1 dilution of saline and human plasma; or 1:1 dilution of saline and human whole blood.

[5] = system: balloon traumatized swine femoral arteries; assay: Tissue distribution of crystalline 3H-cytochalasin B after local delivery; parameters: species or system Yorkshire crossbred swine; details: in vivo
Experimental: The in vivo tissue distribution of cytochalasin B administered in crystalline form was evaluated in balloon traumatized swine femoral arteries after local delivery. A femoral artery of a Yorkshire crossbred swine was balloon traumatized by overinflation and rotation of a Vascu-Flo™ Silicone embolectomy catheter. Balloon trauma was immediately followed by intravascular delivery of 10 μg/ml ^3H-cytochalasin B crystals (Sigma Chemical Co., St. Louis, Mo.) in saline (saturated) for three minutes under 1 atm of pressure. Blood flow was resumed in the artery for five minutes prior to sacrifice of the animal.

[6] = system: balloon traumatized left carotid artery; assay: Periadventitial delivery of taxol crystals in pluronic gel, balloon traumatized rat carotid artery; assay type: in vivo, rats
Experimental: To further evaluate the efficacy of crystalline taxol to inhibit neointimal formation in rats, four groups of 5-6 adult male rats underwent balloon trauma of the left carotid artery followed immediately by periadventitial delivery of 1, 0.1, 0.01 or 0 mg of taxol crystals in 500 mg of a pluronic polymer in gel matrix. Fourteen days later, the rats were sacrificed, serum was collected and their carotid arteries were processed for histologic and morphometric analysis.

[7] = system: balloon traumatized left carotid artery; details: rat, in vivo
[8] = system: Vascular smooth muscle (BO54) cells; assay type: cell-based, baboon
[9] = system: Vascular smooth muscle (BO54) cells; assay type: cell-based, baboon; remark: listed apart in the source
[10] = system: Vascular smooth muscle cells
[11] = 1.5 μg/ml, Media/viable tissue, 1 h
[12] = 1.5 μg/ml, Media/viable tissue, 1 h at 37° C.
[13] = 1.5 μg/ml, Media/viable tissue, 4 h
[14] = 8 μg/ml, Media/boiled tissue, 4 h
[15] = 8 μg/ml, Media/boiled tissue, 24 h

**Q.** With ^3H-cytochalasin B as the molecule, how does the “injected dose in circulation” value ([1]; by 15 minutes) read?
**A.** The value was “less than 1%”.

**Q.** And the “tissues with significant retention of 3H activity” value ([1]; mouse, in vivo)?
**A.** Its value is “Only liver, skeletal muscle and intestines showed significant retention”.

**Q.** And the “total reactivity in the tissue” value [2]?
**A.** The value was “less than 20%”.

**Q.** What about the “total reactivity present in the media” value [2] of the same molecule?
**A.** The value was “greater than 80%”.

**Q.** And the “% Metabolized of Extractable Activity” value [2, 11]?
**A.** The value was 43.0%.

**Q.** And the “% Non extractable Activity” value [2, 11]?
**A.** Its value is 0.5%.

**Q.** And the “% Activity in Media” value [2, 12]?
**A.** The value was 84%.

**Q.** What about the “% Activity in Tissue” value [2, 12] of the same molecule?
**A.** The value was 16%.

**Q.** And the “% Activity in Media” value [2, 13]?
**A.** Its value is 84%.

**Q.** And the “% Activity in Tissue” value [2, 13]?
**A.** Its value is 16%.

**Q.** What about the “% Metabolized of Extractable Activity” value [2, 13] of the same molecule?
**A.** Its value is 77.0%.

**Q.** What about the “% Metabolized of Extractable Activity” value ([2]; 1.5 μg/ml, Media/viable tissue, 24 h) of the same molecule?
**A.** The value was 98.7%.

**Q.** What about the “% Metabolized of Extractable Activity” value ([2]; 8 μg/ml, Media Only, 1 h) of the same molecule?
**A.** The value was 5%.

**Q.** And the “% Metabolized of Extractable Activity” value ([2]; 8 μg/ml, Media Only, 24 h)?
**A.** Its value is 5%.

**Q.** And the “% Non extractable Activity” value ([2]; 8 μg/ml, Media/boiled tissue, 1 h)?
**A.** Its value is 0.5%.

**Q.** What about the “% Extractable Activity” value [2, 14] of the same molecule?
**A.** The value was 99.0%.

**Q.** And the “% Metabolized of Extractable Activity” value [2, 14]?
**A.** The value was 5%.

**Q.** What about the “% Non extractable Activity” value [2, 14] of the same molecule?
**A.** The value was 1%.

**Q.** And the “% Activity in Media” value [2, 15]?
**A.** Its value is 87%.

**Q.** And the “% Activity in Tissue” value [2, 15]?
**A.** The value was 13%.

**Q.** What about the “% Metabolized of Extractable Activity” value [2, 15] of the same molecule?
**A.** The value was 5%.

**Q.** What about the “% Non extractable Activity” value [2, 15] of the same molecule?
**A.** The value was 1.3%.

**Q.** What about the “% Metabolized of Extractable Activity” value ([2]; 8 μg/ml, Media/viable tissue, 1 h) of the same molecule?
**A.** Its value is 24.2%.

**Q.** And the “% Metabolized of Extractable Activity” value ([2]; 8 μg/ml, Media/viable tissue, 4 h)?
**A.** Its value is 59.4%.

**Q.** And the “% Metabolized of Extractable Activity” value ([2]; 8 μg/ml, Media/viable tissue, 24 h)?
**A.** Its value is 98.0%.

**Q.** And the “cytotoxicity of agent or its metabolites” value [3]?
**A.** The value was “not cytotoxic”.

**Q.** And the metabolism ([4]; 8 μg/ml in 1:1 saline and human plasma)?
**A.** Its metabolism is “not metabolized”.

**Q.** What about the metabolism ([4]; 8 μg/ml in 1:1 saline and human whole blood) of the same molecule?
**A.** Its metabolism is “metabolized by human whole blood”.

**Q.** And the metabolism ([4]; 8 μg/ml in saline)?
**A.** Its metabolism is “not metabolized”.

**Q.** What about the tissue localization [5] of the same molecule?
**A.** Its tissue localization is “localized predominantly to the adventitia”.

**Q.** For `CC(=O)O[C@H]1C(=O)[C@@]2(C)[C@H]([C@H](OC(=O)c3ccccc3)[C@]3(O)C[C@H](OC(=O)[C@H](O)[C@@H](NC(=O)c4ccccc4)c4ccccc4)C(C)=C1C3(C)C)[C@]1(OC(C)=O)CO[C@@H]1C[C@@H]2O` [taxol], which “neointimal area and neointimal/medial ratio vs control” value ([6]; 0.01 mg) is on record?
**A.** Its value is “reduction in their neointimal area and neointimal/medial ratio”.

**Q.** And the toxicity ([6]; 0.01 mg)?
**A.** The toxicity was “no”.

**Q.** And the “neointimal area and neointimal/medial ratio vs control” value ([6]; 0.1 mg)?
**A.** The value was “reduction in their neointimal area and neointimal/medial ratio”.

**Q.** And the toxicity ([6]; 0.1 mg)?
**A.** The toxicity was “minimal”.

**Q.** What about the toxicity ([6]; 1.0 mg) of the same molecule?
**A.** The toxicity was “limited”.

**Q.** What about the “morphometry vs untreated controls” value [7] of the same molecule?
**A.** The value was “statistically significantly larger luminal areas and no neointimal proliferation”.

**Q.** What about the post-surgical weight gain [7] of the same molecule?
**A.** The post-surgical weight gain was “delay in post-surgical weight gain”.

**Q.** With `CC(=O)O[C@@H]1/C=C\[C@@](C)(O)C(=O)[C@@H](C)C/C=C\[C@H]2[C@H](O)C(C)=C(C)[C@H]3C(Cc4ccccc4)NC(=O)[C@]132` (stereo partly shown) [cytochalasin C] as the molecule, how does the “MED, DNA synthesis assay” value [8] read?
**A.** Its value is 0.01 µg/mL.

**Q.** For `Cc1ccc(C(=O)Nc2ccc(S(=O)(=O)O)c3cc(S(=O)(=O)O)cc(S(=O)(=O)O)c23)cc1NC(=O)c1cccc(NC(=O)Nc2cccc(C(=O)Nc3cc(C(=O)Nc4ccc(S(=O)(=O)O)c5cc(S(=O)(=O)O)cc(S(=O)(=O)O)c45)ccc3C)c2)c1` [suramin], which “DNA synthesis inhibition compared with protein synthesis inhibition” value [8] is on record?
**A.** The value was “to a greater extent than they inhibited protein synthesis”.

**Q.** For `O=[N+]([O-])OCC(CO[N+](=O)[O-])O[N+](=O)[O-]` [nitroglycerin], which “DNA synthesis inhibition compared with protein synthesis inhibition” value [8] is on record?
**A.** Its value is “to a greater extent than they inhibited protein synthesis”.

**Q.** With `CN[C@@H]1C[C@H]2O[C@@](C)([C@@H]1OC)n1c3ccccc3c3c4c(c5c6ccccc6n2c5c31)C(=O)NC4` [staurosporin] as the molecule, how does the “minimum effective dose (MED), protein synthesis assay” value [9] read?
**A.** The value was 100 ng/mL.

**Q.** What about the “minimum effective dose (MED), DNA assay” value [8] of the same molecule?
**A.** Its value is 1 ng/mL.

**Q.** What about the “cytotoxicity grade at in vitro effective dosage” value [10] of the same molecule?
**A.** The value was 2.
